Literature values in patent US5686420A, “Thyrotropin-releasing hormone analogs and method of use” (Georgetown University, priority 1995, dated 1997).

Conditions: in vivo

- plasma half-life: 4 to 5 min
Compound: NC(=O)[C@@H]1CCCN1C(=O)[C@H](Cc1cnc[nH]1)NC(=O)[C@@H]1CCC(=O)N1 [TRH, L-pyroglutamyl-L-histidyl-L-prolineamide]
